Experimental data as given in ChEMBL document CHEMBL2176932, “De novo cyclic pseudopeptides containing aza-β3-amino acids exhibiting antimicrobial activities” (J Med Chem, 2012).
In brackets after ≈: the same amount, converted by molar mass.

Tests used:
Enterococcus faecalis = test: Antibacterial activity against Enterococcus faecalis CIP 186 after 48 hrs by microtiter broth dilution method; format: functional; settings: CIP 186, 48 h
Priestia megaterium = test: Antibacterial activity against Bacillus megaterium ATCC 10778 after 48 hrs by microtiter broth dilution method; format: functional; settings: ATCC 10778, 48 h
Salmonella enterica = test: Antibacterial activity against Salmonella enterica ATCC 13076 after 48 hrs by microtiter broth dilution method; format: functional; settings: ATCC 13076, 48 h
[1] = Toxicity in sheep RBC assessed as hemolytic activity after 1 hr; format: cell-based, Ovis aries, Erythrocyte; settings: sheep red blood cells
Staphylococcus aureus = test: Antibacterial activity against Staphylococcus aureus ATCC 25923 after 48 hrs by microtiter broth dilution method; format: functional; settings: ATCC 25923, 48 h
Klebsiella oxytoca = test: Antibacterial activity against Klebsiella oxytoca CIP 7932 after 48 hrs by microtiter broth dilution method; format: functional; settings: CIP 7932, 48 h
Micrococcus luteus = test: Antibacterial activity against Micrococcus luteus ATCC 10240 after 48 hrs by microtiter broth dilution method; format: functional; settings: ATCC 10240, 48 h
Lactococcus garvieae = test: Antibacterial activity against Lactococcus garvieae ATCC 43921 after 48 hrs by microtiter broth dilution method; format: functional; settings: ATCC 43921, 48 h
Pseudomonas aeruginosa = test: Antibacterial activity against Pseudomonas aeruginosa ATCC 27853 after 48 hrs by microtiter broth dilution method; format: functional; settings: ATCC 27853, 48 h
[2] = Toxicity in sheep RBC assessed as hemolytic activity at 100 uM after 1 hr; format: cell-based, Ovis aries, Erythrocyte; settings: sheep red blood cells, read-out: Activity
Streptococcus equinus = test: Antibacterial activity against Streptococcus equinus ATCC 5623 after 48 hrs by microtiter broth dilution method; format: functional; settings: ATCC 5623, 48 h
Listeria monocytogenes = test: Antibacterial activity against Listeria monocytogenes SOR 100 after 48 hrs by microtiter broth dilution method; format: functional; settings: SOR 100, 48 h
Escherichia coli = test: Antibacterial activity against Escherichia coli ATCC 25922 after 48 hrs by microtiter broth dilution method; format: functional; settings: ATCC 25922, 48 h
Klebsiella aerogenes = test: Antibacterial activity against Enterobacter aerogenes ATCC 13048 after 48 hrs by microtiter broth dilution method; format: functional; settings: ATCC 13048, 48 h
Aeromonas caviae = test: Antibacterial activity against Aeromonas caviae ATCC 15648 after 48 hrs by microtiter broth dilution method; format: functional; settings: ATCC 15648, 48 h

SMILES	MIC (Enterococcus faecalis)	MIC (Priestia megaterium)	MIC (Salmonella enterica)	MIC (Staphylococcus aureus)	MIC (Klebsiella oxytoca)	MIC (Micrococcus luteus)	MIC (Lactococcus garvieae)	MIC (Pseudomonas aeruginosa)	MIC (Streptococcus equinus)	MIC (Listeria monocytogenes)	MIC (Escherichia coli)	MIC (Klebsiella aerogenes)	MIC (Aeromonas caviae)	HC50 at 1 h [1]	hemolysis at 1 h, 100 µM [2]
CC(C)CN1CC(=O)N[C@@H](Cc2c[nH]c3ccccc23)C(=O)NN(CC(C)C)CC(=O)N[C@@H](CCCCN)C(=O)NN(CCCCN)CC(=O)N[C@@H](Cc2c[nH]c3ccccc23)C(=O)N1	> 100 µM	25 µM (≈ 22.5 µg/mL)	> 100 µM	> 100 µM	> 100 µM	50 µM (≈ 45 µg/mL)	> 100 µM	> 100 µM	100 µM (≈ 90 µg/mL)	> 100 µM	> 100 µM	> 100 µM	> 100 µM	> 100 µM	0%
CC(C)C[C@@H]1NC(=O)CN(Cc2ccc3ccccc3c2)NC(=O)[C@H](CCCCN)NC(=O)CN(CCCCN)NC(=O)CN(Cc2ccc3ccccc3c2)NC1=O	> 100 µM	12.5 µM (≈ 10.1 µg/mL)	100 µM (≈ 80.9 µg/mL)	> 100 µM	> 100 µM	6.25 µM (≈ 5.06 µg/mL)	> 100 µM	100 µM (≈ 80.9 µg/mL)	25 µM (≈ 20.2 µg/mL)	100 µM (≈ 80.9 µg/mL)	> 100 µM	> 100 µM	> 100 µM	> 100 µM	0%
CC(C)CN1CC(=O)N[C@@H](Cc2c[nH]c3ccccc23)C(=O)NN(CC(C)C)CC(=O)N[C@@H](CCCCN)C(=O)NN(CCCCN)CC(=O)N[C@@H](CCCCN)C(=O)N1	> 100 µM	50 µM (≈ 42.1 µg/mL)	> 100 µM	> 100 µM	> 100 µM	100 µM (≈ 84.2 µg/mL)	> 100 µM	> 100 µM	> 100 µM	> 100 µM	> 100 µM	> 100 µM	> 100 µM	> 100 µM	0%
CC(C)CN1CC(=O)N[C@@H](Cc2c[nH]c3ccccc23)C(=O)NN(CCCCN)CC(=O)N[C@@H](CCCCN)C(=O)NN(CCCCN)CC(=O)N[C@@H](Cc2c[nH]c3ccccc23)C(=O)N1	> 100 µM	25 µM (≈ 22.9 µg/mL)	> 100 µM	> 100 µM	> 100 µM	100 µM (≈ 91.5 µg/mL)	> 100 µM	> 100 µM	> 100 µM	> 100 µM	> 100 µM	> 100 µM	> 100 µM	> 100 µM	0%

More lines, main results first:

MIC (Enterococcus faecalis)	MIC (Priestia megaterium)	MIC (Salmonella enterica)	MIC (Staphylococcus aureus)	MIC (Klebsiella oxytoca)	MIC (Micrococcus luteus)	MIC (Lactococcus garvieae)	MIC (Pseudomonas aeruginosa)	MIC (Streptococcus equinus)	MIC (Listeria monocytogenes)	MIC (Escherichia coli)	MIC (Klebsiella aerogenes)	MIC (Aeromonas caviae)	SMILES	HC50 at 1 h [1]	hemolysis at 1 h, 100 µM [2]
> 100 µM	50 µM (≈ 36.2 µg/mL)	> 100 µM	> 100 µM	> 100 µM	50 µM (≈ 36.2 µg/mL)	> 100 µM	> 100 µM	100 µM (≈ 72.5 µg/mL)	> 100 µM	> 100 µM	> 100 µM	> 100 µM	CC(C)C[C@H]1NC(=O)CN(CCCCN)NC(=O)[C@H](CCCCN)NC(=O)CN(Cc2cccc3ccccc23)NC(=O)CN(CC(C)C)NC1=O	> 100 µM	0%
> 100 µM	> 100 µM	> 100 µM	> 100 µM	> 100 µM	> 100 µM	> 100 µM	100 µM (≈ 106 µg/mL)	> 100 µM	> 100 µM	100 µM (≈ 106 µg/mL)	> 100 µM	> 100 µM	C[C@@H](O)[C@@H]1NC(=O)CN(CCCCN)NC(=O)[C@H](Cc2ccccc2)NC(=O)CN(Cc2cccc3ccccc23)NC(=O)[C@H](CO)NC(=O)CN(CCCCN)NC(=O)[C@H](CO)NC(=O)CN(CCCCN)NC1=O	> 100 µM	0%
> 100 µM	25 µM (≈ 19.1 µg/mL)	> 100 µM	> 100 µM	> 100 µM	25 µM (≈ 19.1 µg/mL)	> 100 µM	> 100 µM	100 µM (≈ 76.6 µg/mL)	> 100 µM	> 100 µM	> 100 µM	> 100 µM	CC(C)C[C@@H]1NC(=O)CN(Cc2cccc3ccccc23)NC(=O)[C@H](CCCNC(=N)N)NC(=O)CN(CCCNC(=N)N)NC(=O)[C@H](CC(C)C)NC1=O	> 100 µM	0%
